Format in all cases: cell-based
The subject of experiment [1] is HTT mRNA, alternative junction (AJ). Description: Splicing assay (RT-qPCR): increase in HTT alternative junction (AJ) mRNA. As to conditions: A673 or K562 cell line, 24 hours treatment, top dose 10 uM; concentration having 50% response in AJ increase. In outline:
(§1)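 A673 (DMEM, 10% FBS) or K562 (IMDM, 10% FBS) cells treated 24 h at 37 °C with 11-point 3-fold dilutions, top 10 uM, ≤0.25% DMSO. Lysates analysed by one-step RT-qPCR for HTT CJ and AJ isoforms. Normalised to PPIA (A673) or GAPDH/GUSB (K562).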

The subject of experiment [2] is HTT mRNA, canonical junction (CJ). Description: Splicing assay (RT-qPCR): decrease in HTT canonical junction (CJ) mRNA. To be noted: A673 or K562 cell line, 24 hours treatment, top dose 10 uM; concentration having 50% response in CJ decrease. A digest of the protocol:
as §1

The test system of a further experiment is HTT CJ mRNA. Description: Gene panel canonical junction qPCR assay: decrease in HTT CJ mRNA. To be noted: protocol as for Table 2, read-out: HTT (IC50, decrease in CJ mRNA levels). A digest of the protocol: (§2)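 A673 or K562 cells were treated 24 h at 37 °C with an 11-point 3-fold dilution series (top dose 10 uM final, DMSO ≤0.25%). Lysates went to RT-qPCR for the canonical exon-exon junction transcript, normalized to GAPDH, GUSB or PPIA. Levels were taken as ΔΔCt versus DMSO control and converted to RQ via 2^(−ΔΔCt).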

The next experiment relates to SMN2 CJ mRNA. Description: Gene panel canonical junction qPCR assay: decrease in SMN2 CJ mRNA. To be noted: protocol as for Table 2, read-out: SMN2 (IC50, decrease in CJ mRNA levels). A digest of the protocol:
as §2

The next experiment deals with Target C CJ mRNA. Description: Gene panel canonical junction qPCR assay: decrease in Target C CJ mRNA. As to conditions: protocol as for Table 2, read-out: Target C (IC50, decrease in CJ mRNA levels). A digest of the protocol: as §2

AC50 and IC50 data for eleven molecules are collected here from patent US20240226098A1, “COMPOUNDS AND METHODS FOR MODULATING SPLICING” (REMIX THERAPEUTICS INC., priority 2020, published 2024).

`CCC1CN(c2ccc(C(=O)Nc3cc(F)c4nc(C)cn4c3)c3nnccc23)CCN1` (stereo in doubt) [Compound 151, 5-[(3S)-3-ethylpiperazin-1-yl]-N-[8-fluoro-2-methylimidazo[1,2-a]pyridin-6-yl]cinnoline-8-carboxamide]: the AC50 in experiment [1] and in experiment [2] was 1 to 10 µM in each case. Further, the IC50 in the experiment with HTT CJ mRNA was 1 to 10 µM; in the experiment on SMN2 CJ mRNA, less than 0.1 µM; in the experiment with Target C CJ mRNA, more than 10 µM.

In the case of `Cc1cn2cc(NC(=O)c3ccc(N4C[C@H]5CC[C@@H](C4)N5)c4ccnnc34)cc(F)c2n1` [Compound 108], the AC50 in experiment [1] and in experiment [2] was 1 to 10 µM each time. In addition, the results for the IC50 with HTT CJ mRNA, with SMN2 CJ mRNA and in the experiment with Target C CJ mRNA were 1 to 10 µM, less than 0.1 µM and 0.1 to 1 µM, respectively.

Regarding `CCC1CN(c2ccc(C(=O)Nc3cc(F)c4nc(C)cn4c3)c3nnccc23)CCN1` (stereo in doubt) [Compound 152, 5-[(3R)-3-ethylpiperazin-1-yl]-N-[8-fluoro-2-methylimidazo[1,2-a]pyridin-6-yl]cinnoline-8-carboxamide], the AC50 in experiment [1] and in experiment [2] was 1 to 10 µM throughout. The results for the IC50 in the experiment on HTT CJ mRNA, in the experiment with SMN2 CJ mRNA and with Target C CJ mRNA were 1 to 10 µM, less than 0.1 µM and more than 10 µM, respectively.

With `Cc1cn2cc(NC(=O)c3ccc(C4CCN(C)CC4)c4ccnnc34)cc(F)c2n1` [Compound 140, N-[8-fluoro-2-methylimidazo[1,2-a]pyridin-6-yl]-5-(1-methylpiperidin-4-yl) cinnoline-8-carboxamide], the AC50 in experiment [1] and in experiment [2] was 1 to 10 µM throughout. Further, the IC50 was 1 to 10 µM with HTT CJ mRNA, less than 0.1 µM in the experiment with SMN2 CJ mRNA and more than 10 µM in the experiment on Target C CJ mRNA.

Regarding `Cc1cn2cc(NC(=O)c3ccc(N4CCNCC4)c4ccnnc34)cc(F)c2n1` [Compound 101, N-[8-fluoro-2-methylimidazo[1,2-a]pyridin-6-yl]-5-(piperazin-1-yl) cinnoline-8-carboxamide], the AC50 in experiment [1] and in experiment [2] was 0.1 to 1 µM each time. The IC50 is 0.1 to 1 µM in the experiment with HTT CJ mRNA, less than 0.1 µM in the experiment with SMN2 CJ mRNA and 1 to 10 µM with Target C CJ mRNA.

In the case of `Cc1cn2cc(NC(=O)c3ccc(N4CCNCC4)c4ccnnc34)ncc2n1` [Compound 120, N-[2-methylimidazo[1,2-a]pyrazin-6-yl]-5-(piperazin-1-yl) cinnoline-8-carboxamide], the AC50 in experiment [1] and in experiment [2] was more than 10 µM throughout. For the same molecule, the results for the IC50 in the experiment on HTT CJ mRNA, in the experiment with SMN2 CJ mRNA and in the experiment on Target C CJ mRNA were more than 10 µM, less than 0.1 µM and more than 10 µM, respectively.

`Cc1cn2cc(NC(=O)c3ccc(N4CCN5CCCC5C4)c4ccnnc34)cc(F)c2n1` (stereo in doubt) [Compound 153, 5-[(8aS)-hexahydro-1H-pyrrolo[1,2-a]pyrazin-2-yl]-N-[8-fluoro-2-methylimidazo[1,2-a]pyridin-6-yl]cinnoline-8-carboxamide]: the AC50 in experiment [1] and in experiment [2] was 0.1 to 1 µM throughout. The half-maximal inhibitory concentration (IC50) in the experiment with HTT CJ mRNA is 0.1 to 1 µM; in the experiment on SMN2 CJ mRNA it was less than 0.1 µM; in the experiment on Target C CJ mRNA it was 1 to 10 µM.

As to `Cc1nc2c(F)cc(NC(=O)c3ccc(N4CCNCC4)c4ccnnc34)cc2s1` [Compound 118, N-(4-fluoro-2-methyl-1,3-benzothiazol-6-yl)-5-(piperazin-1-yl) cinnoline-8-carboxamide], the AC50 in experiment [1] and in experiment [2] was 0.1 to 1 µM each time. In addition, the IC50 with HTT CJ mRNA was 0.1 to 1 µM; with SMN2 CJ mRNA, less than 0.1 µM; in the experiment with Target C CJ mRNA, 0.1 to 1 µM.

Take `Cn1cc2c(F)cc(NC(=O)c3ccc(N4CCNCC4)c4ccnnc34)cc2n1` [Compound 116, N-(4-fluoro-2-methylindazol-6-yl)-5-(piperazin-1-yl) cinnoline-8-carboxamide]: the AC50 in experiment [1] and in experiment [2] was more than 10 µM each time. For the same molecule, the IC50 in the experiment on HTT CJ mRNA, in the experiment on SMN2 CJ mRNA and with Target C CJ mRNA was more than 10 µM in each case.

On to `Cc1cn2cc(NC(=O)c3ccc(N4CCNC(C)C4)c4ccnnc34)cc(F)c2n1` (stereo not shown) [Compound 128, N-[8-fluoro-2-methylimidazo[1,2-a]pyridin-6-yl]-5-(3-methylpiperazin-1-yl) cinnoline-8-carboxamide], for which the AC50 in experiment [1] and in experiment [2] was 0.1 to 1 µM each time. Also, the IC50 in the experiment on HTT CJ mRNA is 0.1 to 1 µM; in the experiment on SMN2 CJ mRNA, less than 0.1 µM; in the experiment with Target C CJ mRNA it was 0.1 to 1 µM.

On to `Cc1cn2cc(NC(=O)c3ccc(N4CCC(N(C)C)C4)c4ccnnc34)cc(F)c2n1` (stereo not shown) [Compound 134, 5-[3-(dimethylamino)pyrrolidin-1-yl]-N-[8-fluoro-2-methylimidazo[1,2-a]pyridin-6-yl]cinnoline-8-carboxamide], for which the AC50 in experiment [1] and in experiment [2] was 1 to 10 µM each time. In addition, the IC50 in the experiment on HTT CJ mRNA was 1 to 10 µM; with SMN2 CJ mRNA, less than 0.1 µM; in the experiment with Target C CJ mRNA, 1 to 10 µM.
